This assay concerns the target T1, PD-1/PD-L1 (Homo sapiens, UniProt Q9NZQ7).
T1 construct: Recombinant human PD-L1 protein (19-238) with a His-tag at the C-terminus; purchased AcroBiosystems PD1-H5229 (PD-L1); PD1-H5257 (PD-1)
Briefly: PD-1/PD-L1 homogenous time-resolved fluorescence (HTRF) binding assay. The note with it: recombinant human PD-L1 (19-238) His-tag / human PD-1 (25-167) Fc tag, class symbols. An outline of the steps: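 Inhibitors were preincubated 40 min at 25°C with 10 nM His-tagged human PD-L1 (19-238) and 3 nM Fc-tagged human PD-1 (25-167) in PBS pH 7.4 containing Tween-20, BSA and 1% DMSO. After 60 min with europium anti-human IgG and anti-His-APC, 665/620 nm signal ratio gave IC50 via percent-control fit.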
(In general: In TR-FRET formats the signal depends on donor and acceptor labels being close together.)
T1 sequence (Q9NZQ7 19-238): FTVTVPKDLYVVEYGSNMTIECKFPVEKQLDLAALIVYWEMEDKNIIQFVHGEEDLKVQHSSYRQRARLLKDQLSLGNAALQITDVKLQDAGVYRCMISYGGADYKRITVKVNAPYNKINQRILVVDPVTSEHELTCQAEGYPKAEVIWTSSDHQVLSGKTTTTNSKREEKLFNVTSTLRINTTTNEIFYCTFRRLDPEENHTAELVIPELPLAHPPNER
Regarding `CNC(=O)CNCc1cnc2c(Nc3cccc(-c4cccc(Nc5nccc6cc(CNCC(=O)N(C)CCO)cnc56)c4C)c3C)nccc2c1` [Example 147, 2-(((8-((2,2′-dimethyl-3′-((3-(((2-(methylamino)-2-oxoethyl)amino)methyl)-1,7-naphthyridin-8-yl)amino)-[1,1′-biphenyl]-3-yl)amino)-1,7-naphthyridin-3-yl)methyl)amino)-N-(2-hydroxyethyl)-N-methylacetamide], the IC50 (in general, the concentration needed to halve the response being measured) was less than 25 nM.

As to `COC(=O)NCC1(N2CCc3nc(C(=O)N4CCc5c(-c6cccc7c6CCN7C(=O)c6nc7c(s6)CN(C6(CNC(=O)OC)CC6)CC7)cccc54)sc3C2)CC1` [Example 131, dimethyl (((([4,4′-biindoline]-1,1′-dicarbonyl)bis(6,7-dihydrothiazolo[5,4-c]pyridine-2,5(4H)-diyl))bis(cyclopropane-1,1-diyl))bis(methylene))dicarbamate], the IC50 was 25 to 100 nM.

Consider `Cc1c(Nc2nccc3cc(CNCC(=O)N(C)CCO)cnc23)cccc1-c1cccc2c1CCN2C(=O)C1=NC2CCN(CC(=O)O)CC2S1` (stereo not shown) [Example 166, 2-(2-(4-(3-((3-(((2-((2-hydroxyethyl)(methyl)amino)-2-oxoethyl)amino)methyl)-1,7-naphthyridin-8-yl)amino)-2-methylphenyl)indoline-1-carbonyl)-3a,6,7,7a-tetrahydrothiazolo[5,4-c]pyridin-5(4H)-yl)acetic acid], for which the IC50 is less than 25 nM.

As for `Cc1c(NC(=O)c2nc3c(s2)CN(C(C)C(=O)O)CC3)cccc1-c1cccc(NC(=O)c2nc3c(s2)CN(C(C)C(=O)O)CC3)c1C` (stereo not shown) [Example 79, 2,2′-((((2,2′-dimethyl-[1,1′-biphenyl]-3,3′-diyl)bis(azanediyl))bis(carbonyl))bis(6,7-dihydrothiazolo[5,4-c]pyridine-2,5(4H)-diyl))dipropionic acid], the half-maximal inhibitory concentration (IC50) was less than 25 nM.

Consider `O=C(Nc1cccc(-c2cccc3c2CCN3C(=O)c2nc3c(s2)CNCC3)c1Cl)c1ncc(CNCCO)s1` [Example 101, N-(2-chloro-3-(1-(4,5,6,7-tetrahydrothiazolo[5,4-c]pyridine-2-carbonyl)indolin-4-yl)phenyl)-5-(((2-hydroxyethyl)amino)methyl)thiazole-2-carboxamide], for which the IC50 is less than 25 nM.

For `CS(=O)(=O)NCCN1CCc2nc(C(=O)N3CCc4c(-c5cccc6c5CCN6C(=O)c5nc6c(s5)CN(CCNS(C)(=O)=O)CC6)cccc43)sc2C1` [Example 117, N,N′-((([4,4′-biindoline]-1,1′-dicarbonyl)bis(6,7-dihydrothiazolo[5,4-c]pyridine-2,5(4H)-diyl))bis(ethane-2,1-diyl))dimethanesulfonamide], the IC50 was less than 25 nM.

For `Cc1c(NC(=O)c2nc3c(s2)CN(CC(C)(C)CO)CC3)cccc1-c1cccc(NC(=O)c2nc3c(s2)CN(CC(C)(C)CO)CC3)c1C` [Example 76, N,N′-(2,2′-dimethyl-[1,1′-biphenyl]-3,3′-diyl)bis(5-(3-hydroxy-2,2-dimethylpropyl)-4,5,6,7-tetrahydrothiazolo[5,4-c]pyridine-2-carboxamide)], the IC50 was less than 25 nM.

The record behind these values is patent US20210040118A1, “IMMUNOMODULATORS, COMPOSITIONS AND METHODS THEREOF” (BETTA PHARMACEUTICALS CO., LTD, priority 2018, published 2021).
